Active and inactive are the calls of the source. The rule behind the calls is not given here.
Assays:
Cell membrane [1] = assay: Disruption of membrane integrity in methicillin-resistant Staphylococcus aureus 15 at 32 ug/ml by SEM analysis; type: subcellular; settings: dose 32.0 µg/ml
Salmonella enterica [2] = assay: Antibacterial activity against Salmonella enterica 8389 assessed as inhibition of bacterial growth incubated for 16 to 20 hrs by CLSI based microdilution method; type: functional; settings: time 16-20 hrs
Staphylococcus aureus [3] = assay: Antibacterial activity against methicillin-resistant Staphylococcus aureus 15 incubated for 16 to 18 hrs in presence of peptidoglycan by checkerboard microdilution assay; type: functional, organism-based; settings: time 16-18 hrs
[4] = Toxicity in BALB/c mouse assessed as pathological changes in kidney at 50 mg/kg, ip administered as single dose and measured after 24 hrs by H & E staining based analysis; type: organism-based; settings: in vivo
Staphylococcus aureus [5] = assay: Induction of ROS production in methicillin-resistant Staphylococcus aureus 15 assessed as accumulation of intracellular ROS incubated for 30 mins by DCFH-DA staining based fluorescence assay; type: functional, organism-based; settings: dose 2-64 µg/ml
Staphylococcus aureus [6] = assay: Inhibition of biofilm formation in Staphylococcus aureus ATCC 29213 assessed as destruction of formed biofilm at 0 to 128 ug/ml incubated for 24 hrs by crystal violet staining based analysis; type: functional, organism-based; settings: dose 0-128 µg/ml
Staphylococcus aureus [7] = assay: Antibacterial activity against methicillin-resistant Staphylococcus aureus 15 infected in BALB/c mouse sepsis model assessed as reduction in bacterial load in liver at 10 mg/kg, ip measured after 48 hrs; type: functional, organism-based
Staphylococcus aureus [8] = assay: Antibacterial activity against methicillin-resistant Staphylococcus aureus 15 incubated for 16 to 18 hrs in presence of phosphatidylethanolamine by checkerboard microdilution assay; type: functional, organism-based; settings: time 16-18 hrs
Staphylococcus aureus [9] = assay: Antibacterial activity against methicillin-resistant Staphylococcus aureus 15 infected in BALB/c mouse sepsis model assessed as normalization of cell morphology in liver at 10 mg/kg, ip measured after 48 hrs by H & E staining based analysis; type: functional, organism-based
[10] = Toxicity in BALB/c mouse assessed as effect on RBC count at 50 mg/kg, ip administered as single dose and measured after 24 hrs; type: organism-based, Erythrocyte; settings: in vivo
[11] = Toxicity in BALB/c mouse assessed as effect on hemoglobin level at 50 mg/kg, ip administered as single dose and measured after 24 hrs; type: organism-based; settings: in vivo
Cell membrane [12] = assay: Induction of cell membrane disruption in methicillin-resistant Staphylococcus aureus 15 assessed as protein leakage at 1 to 6 times MIC incubated for 1 to 2 hrs; type: subcellular; settings: time 1-2 hrs
Staphylococcus aureus [13] = assay: Antibacterial activity against methicillin-resistant Staphylococcus aureus 15 infected in BALB/c mouse sepsis model assessed as reduction in bacterial load in spleen at 10 mg/kg, ip measured after 48 hrs; type: functional, organism-based
Staphylococcus aureus [14] = assay: Antibacterial activity against methicillin-resistant Staphylococcus aureus 15 infected in BALB/c mouse sepsis model assessed as reduction in bacterial load in kidney at 10 mg/kg, ip measured after 48 hrs; type: functional, organism-based
Escherichia coli = assay: Antibacterial activity against Escherichia coli ATCC 25922 assessed as inhibition of bacterial growth incubated for 16 to 20 hrs by CLSI based microdilution method; type: functional; settings: time 16-20 hrs
Salmonella enterica [15] = assay: Antibacterial activity against Salmonella enterica H9812 assessed as inhibition of bacterial growth incubated for 16 to 20 hrs by CLSI based microdilution method; type: functional; settings: time 16-20 hrs
[16] = Toxicity in BALB/c mouse assessed as pathological changes in spleen at 50 mg/kg, ip administered as single dose and measured after 24 hrs by H & E staining based analysis; type: organism-based; settings: in vivo
Staphylococcus aureus [17] = assay: Induction of drug resistance in Staphylococcus aureus ATCC 29213 assessed as increase in MIC at 0.5 times MIC measured for 20 days by CLSI based microdilution method; type: functional, organism-based; settings: time 20.0 day
[18] = Toxicity in BALB/c mouse assessed as effect on creatinine level at 50 mg/kg, ip administered as single dose and measured after 24 hrs; type: organism-based; settings: in vivo
Staphylococcus aureus [19] = assay: Inhibition of biofilm formation in methicillin-resistant Staphylococcus aureus 15 at 64 ug/ml incubated for 24 hrs by crystalline violet staining based analysis; type: functional
Staphylococcus aureus [20] = assay: Antibiofilm activity against methicillin-resistant Staphylococcus aureus 15 assessed as reduction in live bacteria in biofilm incubated for 24 hrs by crystal violet staining based analysis; type: functional, organism-based; settings: dose 0-128 µg/ml
Micrococcus luteus = assay: Antibacterial activity against Micrococcus luteus assessed as inhibition of bacterial growth incubated for 16 to 20 hrs by CLSI based microdilution method; type: functional; settings: time 16-20 hrs
Staphylococcus aureus [21] = assay: Antibacterial activity against methicillin-resistant Staphylococcus aureus 15 incubated for 16 to 18 hrs in presence of phosphatidylglycerol by checkerboard microdilution assay; type: functional, organism-based; settings: time 16-18 hrs
Staphylococcus aureus [22] = assay: Bactericidal activity against methicillin-resistant Staphylococcus aureus 15 at 4 to 8 times MIC measured after 3 hrs by time kill assay; type: functional
[23] = Stability in 50% plasma (unknown origin) assessed as change in MBC against methicillin-resistant Staphylococcus aureus 15 measured for 6 hrs; type: ADME, cell-free
[24] = Toxicity in BALB/c mouse assessed as effect on urea level at 50 mg/kg, ip administered as single dose and measured after 24 hrs; type: organism-based; settings: in vivo
[25] = Toxicity in BALB/c mouse assessed as effect on platelet count at 50 mg/kg, ip administered as single dose and measured after 24 hrs; type: organism-based; settings: in vivo
Staphylococcus aureus [26] = assay: Inhibition of biofilm formation in Staphylococcus aureus ATCC 29213 incubated for 24 hrs by crystalline violet staining based analysis; type: functional, organism-based; settings: dose 0.125-64 µg/ml
Staphylococcus aureus [27] = assay: Antibacterial activity against methicillin-resistant Staphylococcus aureus 15 incubated for 16 to 18 hrs in presence of cardiolipin by checkerboard microdilution assay; type: functional, organism-based; settings: time 16-18 hrs
Staphylococcus aureus [28] = assay: Antibiofilm activity against Staphylococcus aureus ATCC 29213 assessed as reduction in live bacteria in biofilm incubated for 24 hrs by crystal violet staining based analysis; type: functional, organism-based; settings: dose 0-128 µg/ml
Cell membrane [29] = assay: Disruption of membrane integrity in methicillin-resistant Staphylococcus aureus 15 assessed as increase in red fluorescence at 16 ug/ml incubated for 1 hr by DAPI/PI staining based fluorescence microscopic analysis; type: subcellular; settings: dose 16.0 µg/ml
Staphylococcus aureus [30] = assay: Inhibition of biofilm formation in Staphylococcus aureus ATCC 29213 at 64 ug/ml incubated for 24 hrs by crystalline violet staining based analysis; type: functional
Staphylococcus aureus [31] = assay: Inhibition of biofilm formation in methicillin-resistant Staphylococcus aureus 15 incubated for 24 hrs by crystalline violet staining based analysis; type: functional, organism-based; settings: dose 0.125-64 µg/ml
Cell membrane [32] = assay: Disruption of membrane integrity in methicillin-resistant Staphylococcus aureus 15 assessed as increase in fluorescence intensity at 32 ug/ml measured immediately by Sytox green based fluorescence method; type: subcellular; settings: dose 32.0 µg/ml
[33] = Toxicity in BALB/c mouse assessed as effect on albumin level at 50 mg/kg, ip administered as single dose and measured after 24 hrs; type: organism-based; settings: in vivo
[34] = Toxicity in BALB/c mouse assessed as pathological changes in liver at 50 mg/kg, ip administered as single dose and measured after 24 hrs by H & E staining based analysis; type: organism-based; settings: in vivo
[35] = Toxicity in BALB/c mouse assessed as effect on WBC count at 50 mg/kg, ip administered as single dose and measured after 24 hrs; type: organism-based; settings: in vivo
Staphylococcus aureus [36] = assay: Antibacterial activity against methicillin-resistant Staphylococcus aureus 15 infected in BALB/c mouse sepsis model assessed as survival rate at 20 mg/kg, ip administered for 7 days; type: functional; settings: Staphylococcus aureus, 15, 168 h, time 7 day

## C=CCc1cccc(Oc2ccc(C(=O)CC)cc2)c1OCCC[N+](C)(C)CC(=O)NCCCCCC.[Br-]
Cell membrane [1]
  Activity: Active
Salmonella enterica [2]
  MIC: 32 µg/mL
Staphylococcus aureus [3]
  Activity: Active
[4]
  Activity: Non-Toxic
Staphylococcus aureus [5]
  Activity: Dose-Dependent Effect
Staphylococcus aureus [6]
  inhibition: Active
Staphylococcus aureus [7]
  Activity: Active
Staphylococcus aureus [8]
  Activity: Active
Staphylococcus aureus [9]
  Activity: Active
[10]
  Activity: Non-Toxic
[11]
  Activity: Non-Toxic
Cell membrane [12]
  Activity: Active
Staphylococcus aureus [13]
  Activity: Active
Staphylococcus aureus [14]
  Activity: Active
Escherichia coli
  MIC: 16 µg/mL
Salmonella enterica [15]
  MIC: 32 µg/mL
[16]
  Activity: Non-Toxic
Staphylococcus aureus [17]
  Activity: inactive
[18]
  Activity: Non-Toxic
Staphylococcus aureus [19]
  inhibition at 64 µg/mL: 100%
Staphylococcus aureus [20]
  Activity: Active
Micrococcus luteus
  MIC: 1 µg/mL
Staphylococcus aureus [21]
  Activity: inactive
Staphylococcus aureus [22]
  Activity: 100%
[23]
  Stability: Stable
[24]
  Activity: Non-Toxic
[25]
  Activity: Non-Toxic
Staphylococcus aureus [26]
  inhibition: Dose-Dependent Effect
Staphylococcus aureus [27]
  Activity: inactive
Staphylococcus aureus [28]
  Activity: Active
Cell membrane [29]
  Activity: Active
Staphylococcus aureus [30]
  inhibition at 64 µg/mL: 100%
Staphylococcus aureus [31]
  inhibition: Dose-Dependent Effect
Cell membrane [32]
  Activity: Active
[33]
  Activity: Non-Toxic
[34]
  Activity: Non-Toxic
[35]
  Activity: Non-Toxic
Staphylococcus aureus [36]
  survival at 20 mg/kg: 100%

## C=CCc1cccc(Oc2ccc(C(=O)CC)cc2)c1OCC[N+](C)(C)CC(=O)NCCCCCC.[Br-]
Cell membrane [1]
  Activity: Active
Salmonella enterica [2]
  MIC: 64 µg/mL
Staphylococcus aureus [3]
  Activity: Active
[4]
  Activity: Non-Toxic
Staphylococcus aureus [5]
  Activity: Dose-Dependent Effect
Staphylococcus aureus [6]
  inhibition: Active
Staphylococcus aureus [7]
  Activity: Active
Staphylococcus aureus [8]
  Activity: Active
Staphylococcus aureus [9]
  Activity: Active
[10]
  Activity: Non-Toxic
[11]
  Activity: Non-Toxic
Cell membrane [12]
  Activity: Active
Staphylococcus aureus [13]
  Activity: Active
Staphylococcus aureus [14]
  Activity: Active
Escherichia coli
  MIC: 8 µg/mL
Salmonella enterica [15]
  MIC: 64 µg/mL
[16]
  Activity: Non-Toxic
Staphylococcus aureus [17]
  Activity: inactive
[18]
  Activity: Non-Toxic
Staphylococcus aureus [19]
  inhibition at 64 µg/mL: 100%
Staphylococcus aureus [20]
  Activity: Active
Micrococcus luteus
  MIC: 4 µg/mL
Staphylococcus aureus [21]
  Activity: inactive
Staphylococcus aureus [22]
  Activity: 100%
[23]
  Stability: Stable
[24]
  Activity: Non-Toxic
[25]
  Activity: Non-Toxic
Staphylococcus aureus [26]
  inhibition: Dose-Dependent Effect
Staphylococcus aureus [27]
  Activity: inactive
Staphylococcus aureus [28]
  Activity: Active
Cell membrane [29]
  Activity: Active
Staphylococcus aureus [30]
  inhibition at 64 µg/mL: 100%
Staphylococcus aureus [31]
  inhibition: Dose-Dependent Effect
Cell membrane [32]
  Activity: Active
[33]
  Activity: Non-Toxic
[34]
  Activity: Non-Toxic
[35]
  Activity: Non-Toxic
Staphylococcus aureus [36]
  survival at 20 mg/kg: 100%
